Test results from ChEMBL document CHEMBL1201862, “PubChem BioAssay data set” (2004).
The source made the active and inactive calls.

Legend:
Protein skinhead-1 = target: T1, Protein skinhead-1 (Caenorhabditis elegans, UniProt P34707); type: functional
T1 sequence (P34707 whole entry): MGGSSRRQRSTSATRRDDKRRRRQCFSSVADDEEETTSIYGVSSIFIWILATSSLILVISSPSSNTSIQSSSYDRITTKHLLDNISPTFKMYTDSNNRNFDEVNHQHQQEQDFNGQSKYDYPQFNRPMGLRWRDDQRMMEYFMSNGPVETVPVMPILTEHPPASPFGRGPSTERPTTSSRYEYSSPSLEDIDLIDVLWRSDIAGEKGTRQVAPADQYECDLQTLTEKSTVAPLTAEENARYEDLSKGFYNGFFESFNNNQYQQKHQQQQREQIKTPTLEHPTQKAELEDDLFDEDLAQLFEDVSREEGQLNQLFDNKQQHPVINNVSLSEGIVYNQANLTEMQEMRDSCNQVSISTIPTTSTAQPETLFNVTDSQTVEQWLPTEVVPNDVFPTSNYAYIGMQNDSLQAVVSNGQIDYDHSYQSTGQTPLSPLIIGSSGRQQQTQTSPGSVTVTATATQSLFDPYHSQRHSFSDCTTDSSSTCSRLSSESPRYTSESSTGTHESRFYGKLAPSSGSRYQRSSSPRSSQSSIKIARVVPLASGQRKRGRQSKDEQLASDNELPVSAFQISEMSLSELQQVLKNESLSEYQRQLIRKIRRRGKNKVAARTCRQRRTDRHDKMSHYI

Cytochrome P450 1A2 = target: T2, Cytochrome P450 1A2 (Homo sapiens, UniProt P05177);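 note: PubChem cytochrome P450 panel assay, CYP1A2 panel member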
T2 sequence (P05177 whole entry): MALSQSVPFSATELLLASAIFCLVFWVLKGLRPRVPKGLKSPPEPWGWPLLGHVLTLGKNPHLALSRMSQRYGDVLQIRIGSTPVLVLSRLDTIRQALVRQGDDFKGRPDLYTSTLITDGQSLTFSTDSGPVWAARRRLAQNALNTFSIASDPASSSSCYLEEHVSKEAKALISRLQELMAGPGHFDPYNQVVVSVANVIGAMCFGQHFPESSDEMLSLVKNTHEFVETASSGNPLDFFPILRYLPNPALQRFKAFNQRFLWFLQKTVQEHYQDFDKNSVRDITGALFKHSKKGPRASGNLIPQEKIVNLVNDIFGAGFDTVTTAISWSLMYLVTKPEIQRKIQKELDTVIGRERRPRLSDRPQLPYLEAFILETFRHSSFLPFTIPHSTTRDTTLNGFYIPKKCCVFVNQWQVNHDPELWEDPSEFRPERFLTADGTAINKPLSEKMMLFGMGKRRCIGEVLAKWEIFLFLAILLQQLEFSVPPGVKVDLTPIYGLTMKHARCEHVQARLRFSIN

Cytochrome P450 3A4 = Cytochrome P450 3A4 (Homo sapiens, UniProt P08684);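 note: CYP3A4 tested as one member of a cytochrome P450 panel screen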
Cytochrome P450 2C9 = Cytochrome P450 2C9 (Homo sapiens, UniProt P11712)
Cytochrome P450 2C19 = Cytochrome P450 2C19 (Homo sapiens, UniProt P33261); test: Cytochrome panel assay with activity outcomes. Panel member name: p450-cyp2c19 Compounds with AC50 equal or less than 10 uM are considered active; type: functional
[1] = system: Streptococcus sp. 'group A'; test: growth inhibition of control SK(-) GAS strain, dose response, counter-screen for streptokinase expression inhibitor project, luminescence, kanamycin, BacTiterGlo, confirmation (AID 1900); type: functional, organism-based
Streptokinase A = target: T3, Streptokinase A (Streptococcus pyogenes serotype M1, UniProt P10520); test: S. pyogenes streptokinase expression inhibitors, potency, dose response, plasminogen activation absorbance, OD405 (AID 1914); type: functional, Streptococcus pyogenes M1 GAS;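 note: secreted streptokinase activity via plasminogen activation per viability signal from cell pellet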
T3 sequence (P10520 whole entry): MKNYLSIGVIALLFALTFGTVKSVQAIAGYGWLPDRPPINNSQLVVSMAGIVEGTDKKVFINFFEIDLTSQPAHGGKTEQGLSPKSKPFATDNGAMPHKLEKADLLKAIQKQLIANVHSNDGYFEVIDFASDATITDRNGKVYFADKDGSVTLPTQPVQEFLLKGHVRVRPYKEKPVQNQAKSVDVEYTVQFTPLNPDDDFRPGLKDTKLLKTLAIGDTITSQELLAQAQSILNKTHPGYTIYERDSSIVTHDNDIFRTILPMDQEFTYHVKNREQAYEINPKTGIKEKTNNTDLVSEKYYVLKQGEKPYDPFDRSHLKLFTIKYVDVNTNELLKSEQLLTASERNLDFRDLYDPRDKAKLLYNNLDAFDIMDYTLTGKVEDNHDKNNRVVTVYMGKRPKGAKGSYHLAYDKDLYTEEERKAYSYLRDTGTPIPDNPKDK

[2] = inhibitors of intracellular T. cruzi replication, confirmation, NIH3T3 host cells, beta-gal luminescence (AID 2044); type: functional, cell-based;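 note: intracellular parasites grown in NIH/3T3 mouse fibroblasts as host cells; luminescent beta-galactosidase reporter signal from transgenic T. cruzi replicating inside host cells; inhibitors lower the luminescence signal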
[3] = cytotoxicity toward NIH3T3 fibroblasts, dose response, counter-screen, cell-based, ATP luminescence, mouse fibroblasts (AID 2010); type: functional;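 note: cells exposed to compound for about 90 hours before reading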
Streptococcus = test: Group A Streptococcus viability loss, dose response, counter-screen for streptokinase expression inhibitor project, luminescence, BacTiterGlo (AID 1915); type: functional, organism-based;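 note: potency for reduction of bacterial viability or growth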
[4] = Shn3 3'UTR reporter inhibitors, dose response, cell-based, Clone20 osteoblasts, firefly luciferase, cherry-picked (AID 624132); type: functional;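 note: firefly luciferase luminescence from reporter carrying the Shn3 3'UTR in osteoblasts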
[5] = HepG2 cell cytotoxicity, dose response, cytotoxicity control for Shn3 inhibitor project, CellTiter-Glo, cherry-picked (AID 624134); type: functional, cell-based
[6] = control 3'UTR Renilla luciferase suppression, dose response, counter-screen for Shn3 inhibitor project, cell-based, Clone20-Shn3RL, cherry-picked (AID 624133); type: functional
Genome polyprotein = Genome polyprotein (dengue virus type 2, UniProt P29990); test: Dengue-2 NS5 methyltransferase inhibitors, primary screen, biochemical, confirmation dose response (AID 588689); type: functional
[7] = target: FAD-linked sulfhydryl oxidase ALR (Homo sapiens, UniProt P55789); test: inhibitors of human ALR sulfhydryl oxidase, dose response, biochemical, H2O2 detection, luminescence, cherry-pick (AID 493248)
[8] = Luminescence Cell-Based Dose Response HTS to Identify Inhibitors of 5'UTR Stem-Loop Driven Prion Protein mRNA Translation in H4 Neuroglioblastoma Cells. [Related pubchem assays: 1827 (Project Summary), 1813 (Primary HTS)]; type: functional
[9] = inhibitors of SNCA 5'UTR-driven reporter translation, confirmation, H4 neuroglioma cells, luminescence (AID 1988); type: functional, cell-based
[10] = target: Luciferin 4-monooxygenase (Photinus pyralis, UniProt P08659); test: firefly luciferase enzyme inhibitors, dose response, biochemical, luminescence (AID 1891)
[11] = Luminescence Cell-Based Dose Confirmation HTS to Identify Inhibitors of Platelet Dense Granule Release. [Related pubchem assays: 1663 (Primary HTS), 1678 (Summary of Project)]; type: functional

Cytochrome P450 3A4, sequence (P08684 whole entry): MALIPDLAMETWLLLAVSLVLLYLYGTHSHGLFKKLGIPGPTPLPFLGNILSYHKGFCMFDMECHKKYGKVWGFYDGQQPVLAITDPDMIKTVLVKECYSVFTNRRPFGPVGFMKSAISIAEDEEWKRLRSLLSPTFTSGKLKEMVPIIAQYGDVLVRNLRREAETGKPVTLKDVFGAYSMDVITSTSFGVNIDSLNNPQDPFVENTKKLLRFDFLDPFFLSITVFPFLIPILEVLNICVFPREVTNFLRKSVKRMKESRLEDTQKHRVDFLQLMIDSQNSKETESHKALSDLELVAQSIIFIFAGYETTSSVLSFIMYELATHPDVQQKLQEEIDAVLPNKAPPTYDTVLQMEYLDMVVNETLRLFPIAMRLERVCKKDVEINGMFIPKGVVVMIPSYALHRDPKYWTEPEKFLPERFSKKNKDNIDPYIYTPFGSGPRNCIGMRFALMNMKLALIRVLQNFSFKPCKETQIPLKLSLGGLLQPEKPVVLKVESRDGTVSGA
Genome polyprotein, sequence (P29990 2492-3391 limits assumed): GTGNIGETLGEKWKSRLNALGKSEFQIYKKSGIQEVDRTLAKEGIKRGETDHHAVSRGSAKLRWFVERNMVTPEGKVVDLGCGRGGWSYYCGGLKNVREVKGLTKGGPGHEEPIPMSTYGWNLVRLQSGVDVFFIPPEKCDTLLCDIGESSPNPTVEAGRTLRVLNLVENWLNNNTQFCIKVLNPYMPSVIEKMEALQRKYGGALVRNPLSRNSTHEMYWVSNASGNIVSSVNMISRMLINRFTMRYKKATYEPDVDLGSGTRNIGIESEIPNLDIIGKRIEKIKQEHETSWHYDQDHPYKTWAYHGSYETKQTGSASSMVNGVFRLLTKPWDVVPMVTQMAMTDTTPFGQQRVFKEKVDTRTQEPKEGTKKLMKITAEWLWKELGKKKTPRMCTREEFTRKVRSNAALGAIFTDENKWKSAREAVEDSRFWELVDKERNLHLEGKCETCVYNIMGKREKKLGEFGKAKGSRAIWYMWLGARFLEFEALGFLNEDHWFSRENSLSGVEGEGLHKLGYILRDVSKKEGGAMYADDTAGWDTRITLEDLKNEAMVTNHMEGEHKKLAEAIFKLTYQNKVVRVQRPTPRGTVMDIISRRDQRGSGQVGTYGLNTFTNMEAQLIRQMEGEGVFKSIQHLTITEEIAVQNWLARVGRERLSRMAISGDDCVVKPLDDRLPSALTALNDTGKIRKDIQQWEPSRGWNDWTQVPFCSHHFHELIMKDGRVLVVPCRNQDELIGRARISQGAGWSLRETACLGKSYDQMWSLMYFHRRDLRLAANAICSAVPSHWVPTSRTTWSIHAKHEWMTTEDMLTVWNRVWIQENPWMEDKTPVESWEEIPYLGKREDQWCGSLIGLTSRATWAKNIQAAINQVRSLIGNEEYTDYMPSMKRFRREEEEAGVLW
Cytochrome P450 2C9, sequence (P11712 whole entry): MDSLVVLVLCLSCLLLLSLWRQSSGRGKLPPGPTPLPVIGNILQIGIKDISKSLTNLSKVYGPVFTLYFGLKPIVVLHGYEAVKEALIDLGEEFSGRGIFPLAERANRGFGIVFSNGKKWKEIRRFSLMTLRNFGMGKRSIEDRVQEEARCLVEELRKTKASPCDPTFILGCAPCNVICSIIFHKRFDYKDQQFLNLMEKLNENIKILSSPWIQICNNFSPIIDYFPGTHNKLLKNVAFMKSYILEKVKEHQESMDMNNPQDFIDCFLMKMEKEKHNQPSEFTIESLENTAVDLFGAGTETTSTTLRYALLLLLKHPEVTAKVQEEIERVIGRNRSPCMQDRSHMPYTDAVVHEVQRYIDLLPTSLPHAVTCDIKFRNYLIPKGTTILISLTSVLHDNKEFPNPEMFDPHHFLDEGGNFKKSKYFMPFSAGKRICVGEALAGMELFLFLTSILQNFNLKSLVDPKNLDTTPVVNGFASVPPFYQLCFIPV
Cytochrome P450 2C19, sequence (P33261 whole entry): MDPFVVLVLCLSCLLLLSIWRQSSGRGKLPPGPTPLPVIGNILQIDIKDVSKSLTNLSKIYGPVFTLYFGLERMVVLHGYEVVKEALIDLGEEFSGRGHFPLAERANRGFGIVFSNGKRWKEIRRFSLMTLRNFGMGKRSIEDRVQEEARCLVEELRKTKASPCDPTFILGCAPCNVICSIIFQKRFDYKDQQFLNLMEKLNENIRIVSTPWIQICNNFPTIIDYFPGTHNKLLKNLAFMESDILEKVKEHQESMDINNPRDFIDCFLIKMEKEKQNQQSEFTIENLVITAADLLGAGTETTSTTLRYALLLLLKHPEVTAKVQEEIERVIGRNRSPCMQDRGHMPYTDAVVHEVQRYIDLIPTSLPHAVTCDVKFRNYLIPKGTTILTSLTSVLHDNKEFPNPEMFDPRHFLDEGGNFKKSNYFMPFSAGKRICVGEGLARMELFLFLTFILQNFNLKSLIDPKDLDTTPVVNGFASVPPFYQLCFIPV
Luciferin 4-monooxygenase, sequence (P08659 whole entry): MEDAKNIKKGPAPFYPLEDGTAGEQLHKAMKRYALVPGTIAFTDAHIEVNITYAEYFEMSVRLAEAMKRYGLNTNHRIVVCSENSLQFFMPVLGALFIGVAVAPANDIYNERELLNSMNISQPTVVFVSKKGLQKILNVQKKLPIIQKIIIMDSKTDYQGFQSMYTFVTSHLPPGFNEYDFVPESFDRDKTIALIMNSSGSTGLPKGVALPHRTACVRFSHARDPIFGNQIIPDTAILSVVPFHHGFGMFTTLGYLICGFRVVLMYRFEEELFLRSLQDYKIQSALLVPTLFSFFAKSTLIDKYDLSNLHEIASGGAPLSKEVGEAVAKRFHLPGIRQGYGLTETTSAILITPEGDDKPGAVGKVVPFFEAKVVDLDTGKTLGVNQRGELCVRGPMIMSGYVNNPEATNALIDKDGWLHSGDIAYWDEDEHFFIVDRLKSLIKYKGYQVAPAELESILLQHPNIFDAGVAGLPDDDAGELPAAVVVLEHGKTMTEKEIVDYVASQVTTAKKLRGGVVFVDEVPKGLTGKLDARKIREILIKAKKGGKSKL
FAD-linked sulfhydryl oxidase ALR, sequence (P55789 whole entry): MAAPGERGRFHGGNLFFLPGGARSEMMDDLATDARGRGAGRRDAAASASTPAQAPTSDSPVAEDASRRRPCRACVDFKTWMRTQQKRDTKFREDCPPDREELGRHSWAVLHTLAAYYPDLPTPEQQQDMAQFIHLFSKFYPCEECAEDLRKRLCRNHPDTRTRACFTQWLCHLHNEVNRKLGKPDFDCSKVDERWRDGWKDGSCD

For Clc1ccc(-c2nnc(-c3ccccc3)c(N3CCSCC3)n2)cc1, the IC50 (Protein skinhead-1) was > 100 µM (inactive).
For CCN(C(=O)CN1C(=O)S/C(=C\c2cccc(Cl)c2)C1=O)C1CCS(=O)(=O)C1 (stereo unspecified), the IC50 (Protein skinhead-1) was > 100 µM (inactive).
In the case of CCCN(CCC)C[C@@H]1CCCCN1CCNC(=O)N1c2ccccc2C(=O)Nc2cccnc21, the AC50 (Cytochrome P450 1A2) is reported as 25.1 µM (inconclusive), the AC50 (Cytochrome P450 3A4) is reported as 15.8 µM (inconclusive) and the AC50 (Cytochrome P450 2C9) is reported as “inconclusive”.
In the case of Cc1cc2nnc(SCCCCN3C(=O)c4ccccc4C3=O)n2c2ccccc12, the AC50 (Cytochrome P450 2C9) is reported as “inconclusive”.
With Clc1ncc(CSc2ccccc2)s1 the IC50 (Protein skinhead-1) was 84.8 µM (inactive).
For O=C1c2cccc([N+](=O)[O-])c2C(=O)N1c1ncn[nH]1, the AC50 (Cytochrome P450 2C19) was “inconclusive”, the AC50 (Cytochrome P450 1A2) was 3.16 µM (inconclusive) and the AC50 (Cytochrome P450 3A4) was 3.98 µM (inconclusive). The AC50 (Cytochrome P450 2C9) was “inconclusive”.
For CCC(=O)NC(c1ccc(OC)c(OC)c1)c1cc(Cl)c2cccnc2c1O (stereo unspecified), the EC50 [1] was 4.86 µM (active), the EC50 (Streptokinase A) was > 150 µM (not active) and the EC50 [2] was 0.96 µM (active). The EC50 [3] was 4.73 µM (active), the EC50 (Streptococcus) was > 150 µM (not active) and the AC50 [4] was < 0.26 µM (active). For the same compound, the AC50 [5] was 5.6 µM (active) and the AC50 [6] was 2.11 µM (active).
For C=CCc1cc(C=C2C(=O)NC(=O)NC2=O)cc(OC)c1OCc1ccc(C(=O)O)cc1, the IC50 (Genome polyprotein) was 29.1 µM (active).
In the case of O=C(O)c1ccc(Cl)c(S(=O)(=O)Nc2ccc(S(=O)(=O)Nc3cccc(Cl)c3)cc2)c1, the IC50 (Genome polyprotein) is reported as 65.7 µM (active).
In the case of Cc1ccc(C(C)C)cc1NC(=O)Nc1ccc([N+](=O)[O-])cc1, the EC50 [1] is reported as 6.64 µM (active), the EC50 (Streptokinase A) is reported as 10.8 µM (active) and the EC50 (Streptococcus) is reported as 17.5 µM (active). For the same compound, the AC50 [4] was 7.19 µM (active), the AC50 [5] was 22.4 µM (active) and the AC50 [6] was 6.53 µM (active).
With C=CCN1C(=O)NC(=O)/C(=C\c2ccc(-c3ccccc3[N+](=O)[O-])o2)C1=O the AC50 [7] was 0.507 µM (active) and the IC50 (Genome polyprotein) was 25.2 µM (active).
In the case of CCCCCn1c(=N)n(CC(O)COc2ccccc2OC)c2ccccc21 (stereo unspecified), the AC50 [4] is reported as 2.12 µM (active), the AC50 [5] is reported as 24.2 µM (active) and the AC50 [6] is reported as 23.4 µM (active).
For COc1ccc(/C=C(/C#N)C(=O)NC2CCCCC2)cc1Br, the AC50 (Cytochrome P450 3A4) was 25.1 µM (inconclusive) and the AC50 (Cytochrome P450 2C9) was “inconclusive”.
With O=C1NC(=O)N(c2ccccc2)C(=O)/C1=C\c1ccccc1[N+](=O)[O-] the IC50 (Genome polyprotein) was 38.5 µM (active).
In the case of COc1cccc(C2=NN(C(C)=O)C(c3cccs3)C2)c1 (stereo unspecified), the IC50 (Protein skinhead-1) is reported as > 100 µM (inactive).
With CCCCOc1ccc(Br)cc1CSC(=N)N the AC50 [4] was 1.37 µM (active), the AC50 [5] was 23.6 µM (active) and the AC50 [6] was 2.58 µM (active).
In the case of O=C(COc1ncnc2c(Cl)cc(Cl)cc12)N1CCCCC1, the IC50 (Protein skinhead-1) is reported as > 100 µM (inactive).
For O=[N+]([O-])c1c(O)nc(O)nc1/C=C/c1ccc(Cl)cc1Cl, the IC50 (Genome polyprotein) was 49.1 µM (active).
For CC(C)NS(=O)(=O)c1ccc(CCC(=O)Nc2cc(Cl)ccc2Oc2ccccc2)cc1, the AC50 [4] was 7.65 µM (active), the AC50 [5] was 57.7 µM (active) and the AC50 [6] was 22.5 µM (active).
For O=C(/C=C/Nc1ccc(Br)cc1F)c1ccco1, the EC50 [8] was 3.64 µM (active), the EC50 [9] was 4.41 µM (active) and the EC50 [10] was 0.482 µM (active). For the same compound, the EC50 [11] was 8.72 µM (active) and the IC50 (Protein skinhead-1) was 15.4 µM (active).
For O=C(Nc1ccccc1N1CCOCC1)c1ccccc1[N+](=O)[O-], the AC50 (Cytochrome P450 1A2) was 12.6 µM (inconclusive) and the AC50 (Cytochrome P450 2C9) was “inconclusive”.
